Among the data in US20240158418A1 (C4 Therapeutics, Inc., priority 2021, published 2024) are DC50 values, retold here.

Molecules are shown by their SMILES.

For the test, the target named is T1, EGFR L858R-T790M (Homo sapiens, UniProt P00533, L858R/T790M).
T1 construct: NCI-H1975 (harboring EGFR heterozygous L858R-T790M mutations); host or cells: NCI-H1975
T1 sequence (P00533 25-1210 T790M/L858R): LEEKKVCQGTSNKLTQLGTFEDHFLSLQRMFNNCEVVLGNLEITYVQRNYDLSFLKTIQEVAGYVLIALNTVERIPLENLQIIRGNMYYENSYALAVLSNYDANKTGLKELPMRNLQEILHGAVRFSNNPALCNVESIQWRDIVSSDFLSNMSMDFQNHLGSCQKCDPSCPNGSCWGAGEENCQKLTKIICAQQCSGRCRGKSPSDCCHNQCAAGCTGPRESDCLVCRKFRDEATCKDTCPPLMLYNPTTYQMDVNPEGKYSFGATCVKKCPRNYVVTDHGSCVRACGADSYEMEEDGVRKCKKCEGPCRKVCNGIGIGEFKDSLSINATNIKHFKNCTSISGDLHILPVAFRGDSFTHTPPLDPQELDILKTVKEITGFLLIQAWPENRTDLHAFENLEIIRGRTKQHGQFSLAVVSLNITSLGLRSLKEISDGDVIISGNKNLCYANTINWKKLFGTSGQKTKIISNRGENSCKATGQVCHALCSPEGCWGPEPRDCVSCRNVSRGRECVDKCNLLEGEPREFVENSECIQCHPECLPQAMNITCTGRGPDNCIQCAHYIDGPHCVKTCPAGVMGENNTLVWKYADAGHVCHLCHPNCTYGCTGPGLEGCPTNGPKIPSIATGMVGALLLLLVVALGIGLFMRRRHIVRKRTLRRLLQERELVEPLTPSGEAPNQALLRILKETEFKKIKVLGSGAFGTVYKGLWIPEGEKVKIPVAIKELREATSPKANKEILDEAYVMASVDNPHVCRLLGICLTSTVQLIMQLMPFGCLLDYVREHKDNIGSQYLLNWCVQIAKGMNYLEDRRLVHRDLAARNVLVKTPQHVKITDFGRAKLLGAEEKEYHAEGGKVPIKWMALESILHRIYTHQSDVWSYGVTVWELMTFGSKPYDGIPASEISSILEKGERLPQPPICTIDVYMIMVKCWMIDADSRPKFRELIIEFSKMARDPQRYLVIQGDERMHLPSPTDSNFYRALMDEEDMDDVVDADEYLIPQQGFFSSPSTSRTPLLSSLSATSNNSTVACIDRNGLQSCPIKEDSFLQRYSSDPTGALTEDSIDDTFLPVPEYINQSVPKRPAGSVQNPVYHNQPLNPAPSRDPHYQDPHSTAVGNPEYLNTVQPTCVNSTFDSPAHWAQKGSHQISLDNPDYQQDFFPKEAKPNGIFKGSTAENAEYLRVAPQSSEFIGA
Put plainly: EGFR degradation, Total EGFR (L858R-specific) HTRF, NCI-H1975. The note with it: Table 9B; NCI-H1975 cells, 6 hours, Total EGFR HTRF; read-out: H1975 EGFR DC50. The class given is cell-based. In outline:
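Cells in RPMI 1640 + 10% FBS treated 6 h at 37°C with compound, 11-point half-log titration from 10 μM top, in duplicate. pY1068 and total EGFR read by HTRF (pan-EGFR antibody for wild-type A431; L858R-specific for mutants); IC50 for phospho inhibition, DC50 for 50% degradation.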
Broadly, the DC50 is the midpoint of the concentration-degradation curve. For the molecule `O=C1CCC(Nc2ccc(CC(=O)N3CCC(NC(=O)c4ccc(C#Cc5cc(F)c6c(c5)C(=O)N(C(C(=O)Nc5nccs5)c5ncn7c5CCC7)C6)cn4)CC3)cc2)C(=O)N1` (centres unmarked) [Compound 93, 5-[2-[2-[1-(6,7-dihydro-5H-pyrrolo[1,2-c]imidazol-1-yl)-2-oxo-2-(thiazol-2-ylamino)ethyl]-7-fluoro-3-oxo-isoindolin-5-yl]ethynyl]-N-[1-[2-[4-[(2,6-dioxo-3-piperidyl)amino]phenyl]acetyl]-4-piperidyl]pyridine-2-carboxamide], the DC50 is under 50 nM.

`O=C1CC[C@H](Nc2ccc(C3CCN(CC(=O)N4CC5(C4)CN(c4ccc(-c6cc(F)c7c(c6)C(=O)N(C(C(=O)Nc6nccs6)c6ncn8c6CCC8)C7)cn4)C5)CC3)c(F)c2)C(=O)N1` (stereo partly drawn) [Compound 95, 2-(6,7-dihydro-5H-pyrrolo[1,2-c]imidazol-1-yl)-2-(6-(6-(6-(2-(4-(4-(((S)-2,6-dioxopiperidin-3-yl)amino)-2-fluorophenyl)piperidin-1-yl)acetyl)-2,6-diazaspiro[3.3]heptan-2-yl)pyridin-3-yl)-4-fluoro-1-oxoisoindolin-2-yl)-N-(thiazol-2-yl)acetamide]: the DC50 was under 50 nM.

With `O=C1CC[C@H](Nc2ccc(C3CCN(C(=O)CC4CC5(C4)CN(c4ccc(-c6cc(F)c7c(c6)C(=O)N(C(C(=O)Nc6nccs6)c6ncn8c6CCC8)C7)cc4)C5)CC3)c(F)c2)C(=O)N1` (stereo partly drawn) [Compound 100, 2-(6,7-dihydro-5H-pyrrolo[1,2-c]imidazol-1-yl)-2-(6-(4-(6-(2-(4-(4-(((S)-2,6-dioxopiperidin-3-yl)amino)-2-fluorophenyl)piperidin-1-yl)-2-oxoethyl)-2-azaspiro[3.3]heptan-2-yl)phenyl)-4-fluoro-1-oxoisoindolin-2-yl)-N-(thiazol-2-yl)acetamide], the DC50 was under 50 nM.

Turning to `O=C1CCC(Nc2cc(F)c(N3CCC(CC(=O)N4CC5(C4)CN(c4ccc(-c6cc(F)c7c(c6)C(=O)N(C(C(=O)Nc6nccs6)c6ncn8c6CCC8)C7)cc4)C5)CC3)c(F)c2)C(=O)N1` (centres unmarked) [Compound 101, 2-(6,7-dihydro-5H-pyrrolo[1,2-c]imidazol-1-yl)-2-(6-(4-(6-(2-(1-(4-((2,6-dioxopiperidin-3-yl)amino)-2,6-difluorophenyl)piperidin-4-yl)acetyl)-2,6-diazaspiro[3.3]heptan-2-yl)phenyl)-4-fluoro-1-oxoisoindolin-2-yl)-N-(thiazol-2-yl)acetamide], the DC50 fell in the range of 50 to 150 nM.

Turning to `Cn1nc(N2CCC(=O)NC2=O)c2ccc(C3CCN(C(=O)CC4CC5(C4)CN(c4ccc(-c6cc(F)c7c(c6)C(=O)N(C(C(=O)Nc6nccs6)c6ncn8c6CCC8)C7)cc4)C5)CC3(F)F)cc21` (centres unmarked) [Compound 102, 2-(6,7-dihydro-5H-pyrrolo[1,2-c]imidazol-1-yl)-2-(6-(4-(6-(2-(4-(3-(2,4-dioxotetrahydropyrimidin-1(2H)-yl)-1-methyl-1H-indazol-6-yl)-3,3-difluoropiperidin-1-yl)-2-oxoethyl)-2-azaspiro[3.3]heptan-2-yl)phenyl)-4-fluoro-1-oxoisoindolin-2-yl)-N-(thiazol-2-yl)acetamide], the DC50 is under 50 nM.

With `Cn1nc(N2CCC(=O)NC2=O)c2ccc(C3CCN(CC(=O)N4CCC(n5cc(-c6cc(F)c7c(c6)C(=O)N(C(C(=O)Nc6nccs6)c6ncn8c6CCC8)C7)cn5)CC4)CC3(F)F)cc21` (centres unmarked) [Compound 105, 2-(6,7-dihydro-5H-pyrrolo[1,2-c]imidazol-1-yl)-2-(6-(1-(1-(2-(4-(3-(2,4-dioxotetrahydropyrimidin-1(2H)-yl)-1-methyl-1H-indazol-6-yl)-3,3-difluoropiperidin-1-yl)acetyl)piperidin-4-yl)-1H-pyrazol-4-yl)-4-fluoro-1-oxoisoindolin-2-yl)-N-(thiazol-2-yl)acetamide], the half-maximal degradation concentration (DC50) was under 50 nM.

Take `Cn1nc(N2CCC(=O)NC2=O)c2ccc(C3CCN(CC(=O)N4CC5(CCN(c6ccc(-c7cc(F)c8c(c7)C(=O)N(C(C(=O)Nc7nccs7)c7ncn9c7CCC9)C8)cc6)CC5)C4)CC3(F)F)cc21` (centres unmarked) [Compound 106, 2-(6,7-dihydro-5H-pyrrolo[1,2-c]imidazol-1-yl)-2-(6-(4-(2-(2-(4-(3-(2,4-dioxotetrahydropyrimidin-1(2H)-yl)-1-methyl-1H-indazol-6-yl)-3,3-difluoropiperidin-1-yl)acetyl)-2,7-diazaspiro[3.5]nonan-7-yl)phenyl)-4-fluoro-1-oxoisoindolin-2-yl)-N-(thiazol-2-yl)acetamide]: the half-maximal degradation concentration (DC50) is under 50 nM.

Regarding `O=C1CCC(Nc2ccc(N3CCC(O)(CC(=O)N4CC5(CCN(c6ccc(-c7cc(F)c8c(c7)C(=O)N(C(C(=O)Nc7nccs7)c7ncn9c7CCC9)C8)cc6)CC5)C4)CC3)c(F)c2)C(=O)N1` (centres unmarked) [Compound 107, 2-(6,7-dihydro-5H-pyrrolo[1,2-c]imidazol-1-yl)-2-(6-(4-(2-(2-(1-(4-((2,6-dioxopiperidin-3-yl)amino)-2-fluorophenyl)-4-hydroxypiperidin-4-yl)acetyl)-2,7-diazaspiro[3.5]nonan-7-yl)phenyl)-4-fluoro-1-oxoisoindolin-2-yl)-N-(thiazol-2-yl)acetamide], the DC50 was under 50 nM.

With `O=C1CC[C@@H](Nc2ccc(N3CCC(O)(CC(=O)N4CCC(NC(=O)c5ccc(C#Cc6cc(F)c7c(c6)C(=O)N(C(C(=O)Nc6nccs6)c6ncn8c6C[C@@H](F)C8)C7)cn5)CC4)CC3)c(F)c2)C(=O)N1` (stereo partly drawn) [Compound 108, N-(1-(2-(1-(4-(((R)-2,6-dioxopiperidin-3-yl)amino)-2-fluorophenyl)-4-hydroxypiperidin-4-yl)acetyl)piperidin-4-yl)-5-((7-fluoro-2-(1-((R)-6-fluoro-6,7-dihydro-5H-pyrrolo[1,2-c]imidazol-1-yl)-2-oxo-2-(thiazol-2-ylamino)ethyl)-3-oxoisoindolin-5-yl)ethynyl)picolinamide], the DC50 was under 50 nM.

Consider `Cn1nc(N2CCC(=O)NC2=O)c2ccc(N3CCC(O)(CC(=O)N4CC5(C4)CN(c4ccc(-c6cc(F)c7c(c6)C(=O)N(C(C(=O)Nc6nccs6)c6ncn8c6CCC8)C7)cc4)C5)CC3)cc21` (centres unmarked) [Compound 109, 2-(6,7-dihydro-5H-pyrrolo[1,2-c]imidazol-1-yl)-2-(6-(4-(6-(2-(1-(3-(2,4-dioxotetrahydropyrimidin-1(2H)-yl)-1-methyl-1H-indazol-6-yl)-4-hydroxypiperidin-4-yl)acetyl)-2,6-diazaspiro[3.3]heptan-2-yl)phenyl)-4-fluoro-1-oxoisoindolin-2-yl)-N-(thiazol-2-yl)acetamide], for which the DC50 is under 50 nM.

For `O=C1CC[C@H](Nc2ccc(N3CCC(O)(CC(=O)N4CC5(C4)CN(c4ccc(-c6cc(F)c7c(c6)C(=O)N(C(C(=O)Nc6nccs6)c6ncn8c6CCC8)C7)cn4)C5)CC3)c(F)c2)C(=O)N1` (stereo partly drawn) [Compound 110, 2-(6,7-dihydro-5H-pyrrolo[1,2-c]imidazol-1-yl)-2-(6-(6-(6-(2-(1-(4-(((S)-2,6-dioxopiperidin-3-yl)amino)-2-fluorophenyl)-4-hydroxypiperidin-4-yl)acetyl)-2,6-diazaspiro[3.3]heptan-2-yl)pyridin-3-yl)-4-fluoro-1-oxoisoindolin-2-yl)-N-(thiazol-2-yl)acetamide], the DC50 is under 50 nM.
